This is an account of results in patent publication US20260285875A1, “INHIBITORS OF PARG” (858 Therapeutics, Inc., priority 2023, published 2026).

For the assay, the target named is T1, cellular PARG (Homo sapiens, UniProt Q86W56).
T1 construct: endogenous in cells; host or cells: HeLa
Nature of the assay: Nuclear PAR accumulation assay (immunofluorescence high-content imaging, MMS-treated HeLa cells). The format is cell-based. To be noted: 1 hour compound then MMS 50 μg/mL for an additional hour. The method in brief: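 HeLa cells pretreated with compound for 1 h at 37° C, then given 50 μg/mL MMS for another hour. After methanol fixation, PAR was immunostained with DAPI nuclear counterstain; per-nucleus intensity and percent PAR-positive cells were imaged at 20× (≥1,000 cells/well). IC50 from four-parameter logistic fit.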

Each structure is given as a SMILES string.

T1 sequence (Q86W56 whole entry): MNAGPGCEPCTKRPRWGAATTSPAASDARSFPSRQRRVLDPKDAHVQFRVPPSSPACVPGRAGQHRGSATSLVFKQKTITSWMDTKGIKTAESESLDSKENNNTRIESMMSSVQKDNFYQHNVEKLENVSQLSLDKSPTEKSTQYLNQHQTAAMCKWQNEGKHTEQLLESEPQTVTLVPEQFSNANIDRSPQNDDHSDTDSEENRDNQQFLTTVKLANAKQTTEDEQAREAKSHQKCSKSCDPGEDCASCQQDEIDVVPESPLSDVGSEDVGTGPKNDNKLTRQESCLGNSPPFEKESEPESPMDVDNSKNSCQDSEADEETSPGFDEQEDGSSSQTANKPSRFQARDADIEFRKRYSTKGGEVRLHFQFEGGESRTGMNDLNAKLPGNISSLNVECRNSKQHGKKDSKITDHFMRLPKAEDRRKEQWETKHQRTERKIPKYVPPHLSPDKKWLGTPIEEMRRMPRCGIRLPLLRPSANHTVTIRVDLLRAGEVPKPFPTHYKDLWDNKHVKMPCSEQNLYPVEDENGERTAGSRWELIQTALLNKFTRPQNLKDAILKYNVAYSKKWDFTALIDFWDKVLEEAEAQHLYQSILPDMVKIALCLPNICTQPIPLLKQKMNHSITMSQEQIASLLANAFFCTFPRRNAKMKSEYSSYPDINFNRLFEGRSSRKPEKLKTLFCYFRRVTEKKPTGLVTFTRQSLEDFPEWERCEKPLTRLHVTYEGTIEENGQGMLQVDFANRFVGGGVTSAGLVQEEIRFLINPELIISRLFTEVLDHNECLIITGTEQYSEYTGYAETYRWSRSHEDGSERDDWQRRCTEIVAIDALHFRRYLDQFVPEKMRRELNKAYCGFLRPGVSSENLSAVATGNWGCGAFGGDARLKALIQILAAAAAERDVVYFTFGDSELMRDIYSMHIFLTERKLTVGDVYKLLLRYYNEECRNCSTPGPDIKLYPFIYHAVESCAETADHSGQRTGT

`CN(C)C(=O)N1CC[C@@H]2N=C3N(Cc4cnn(C)c4)C(=O)c4cc(S(=O)(=O)NC5(C)CC5)ccc4N3[C@@H]2C1` [Example 161, (7aS,11aR)-N,N-dimethyl-6-((1-methyl-1H-pyrazol-4-yl)methyl)-3-(N-(1-methylcyclopropyl)sulfamoyl)-5-oxo-6,7a,8,9,11,1la-hexahydropyrido[4′,3′:4,5]imidazo[1,2-a]quinazoline-10(5H)-carboxamide] came in with an IC50 of 1000 to 10000 nM.

As to `C#CCn1cc(CN2C(=O)c3cc(S(=O)(=O)NC4(C)CC4)ccc3N3C2=NC[C@H]3C)cn1` [Example 162, (R)-1-methyl-N-(1-methylcyclopropyl)-5-oxo-4-((1-(prop-2-yn-1-yl)-1H-pyrazol-4-yl)methyl)-1,2,4,5-tetrahydroimidazo[1,2-a]quinazoline-7-sulfonamide], the IC50 was less than 100 nM.

In the case of `[2H]C([2H])(c1cnn(C)c1)N1C(=O)c2cc(S(=O)(=O)NC3(C)CC3)ccc2N2C1=NC[C@H]2C#Cc1cnn(C)n1` [Example 163, (R)-4-((1-methyl-1H-pyrazol-4-yl)methyl-d2)-1-((2-methyl-2H-1,2,3-triazol-4-yl)ethynyl)-N-(1-methylcyclopropyl)-5-oxo-1,2,4,5-tetrahydroimidazo[1,2-a]quinazoline-7-sulfonamide], the IC50 was less than 100 nM.

Regarding `CSCC#C[C@@H]1CN=C2N(Cc3cnn(C)c3)C(=O)c3cc(S(=O)(=O)NC4(C)CC4)ccc3N21` [Example 164, (R)-4-((1-methyl-1H-pyrazol-4-yl)methyl)-N-(1-methylcyclopropyl)-1-(3-(methylthio)prop-1-yn-1-yl)-5-oxo-1,2,4,5-tetrahydroimidazo[1,2-a]quinazoline-7-sulfonamide], the IC50 is less than 100 nM.

Regarding `Cn1cc(CN2C(=O)c3cc(S(=O)(=O)NC4(C)CC4)ccc3N3C2=NC[C@H]3C#Cc2ccnn2C)cn1` [Example 165, (R)-4-((1-methyl-1H-pyrazol-4-yl)methyl)-1-((1-methyl-1H-pyrazol-5-yl)ethynyl)-N-(1-methylcyclopropyl)-5-oxo-1,2,4,5-tetrahydroimidazo[1,2-a]quinazoline-7-sulfonamide], the IC50 is less than 100 nM.

`Cn1cc(CN2C(=O)c3cc(S(=O)(=O)NC4(C)CC4)ccc3N3C2=NC[C@H]3C#Cc2cnnn2C)cn1` [Example 166, (R)-1-((1-methyl-1H-1,2,3-triazol-5-yl)ethynyl)-4-((1-methyl-1H-pyrazol-4-yl)methyl)-N-(1-methylcyclopropyl)-5-oxo-1,2,4,5-tetrahydroimidazo[1,2-a]quinazoline-7-sulfonamide] displayed an IC50 of less than 100 nM. The result for `CN1C(=O)c2cc(S(=O)(=O)NC3(C)CC3)ccc2N2C1=NCC2C#Cc1cnc2ccccn12` (stereo not shown) [Example 167, 1-(imidazo[1,2-a]pyridin-3-ylethynyl)-4-methyl-N-(1-methylcyclopropyl)-5-oxo-1,2,4,5-tetrahydroimidazo[1,2-a]quinazoline-7-sulfonamide] reads less than 100 nM; that for `CN1C(=O)c2cc(S(=O)(=O)NC3(C)CC3)ccc2N2C1=NCC2C#Cc1c[nH]c2cnccc12` (stereo not shown) [Example 168, 1-((1H-pyrrolo[2,3-c]pyridin-3-yl)ethynyl)-4-methyl-N-(1-methylcyclopropyl)-5-oxo-1,2,4,5-tetrahydroimidazo[1,2-a]quinazoline-7-sulfonamide], 100 to 1000 nM; that for `CN1C(=O)c2cc(S(=O)(=O)NC3(C)CC3)ccc2N2C1=NCC2C#Cc1cc2cccnc2[nH]1` (stereo not shown) [Example 169, 1-((1H-pyrrolo[2,3-b]pyridin-2-yl)ethynyl)-4-methyl-N-(1-methylcyclopropyl)-5-oxo-1,2,4,5-tetrahydroimidazo[1,2-a]quinazoline-7-sulfonamide], 100 to 1000 nM. With `CN1C(=O)c2cc(S(=O)(=O)NC3(C)CC3)ccc2N2C1=NCC2C#Cc1ccnc2c1OCCO2` (stereo not shown) [Example 170, 1-((2,3-dihydro-[1,4]dioxino[2,3-b]pyridin-8-yl)ethynyl)-4-methyl-N-(1-methylcyclopropyl)-5-oxo-1,2,4,5-tetrahydroimidazo[1,2-a]quinazoline-7-sulfonamide] the figure was less than 100 nM.
